How the values were obtained:
Assay type in all cases: in vivo
Plutella xylostella = experiment: Plutella xylostella, L2 larvae on treated artificial diet; details: 144 h, 200 ppm (concentration in well 18 ppm), 6 days incubation
Method: Plutella xylostella (Diamond Back Moth): 24-well microtiter plate (MTP) with artificial diet was treated with test solutions at an application rate of 200 ppm (concentration in well 18 ppm) by pipetting. After drying, the MTPs were infested with L2 larvae (7-12 per well). After an incubation period of 6 days, samples were checked for larval mortality and growth regulation.

Thrips tabaci = experiment: Thrips tabaci, sprayed sunflower leaf discs; details: foliar, 168 h, sunflower leaf discs sprayed at 200 ppm, mixed ages, mortality after 7 days
Method: Thrips tabaci (Onion Thrips): Sunflower leaf discs were placed on agar in a 24-well microtiter plate and sprayed with test solutions at an application rate of 200 ppm. After drying, the leaf discs were infested with an […] population of mixed ages. After an incubation period of 7 days, samples were checked for mortality.

Myzus persicae = Myzus persicae (sachet), mixed population, sucrose solution; details: 120 h, application rate 12.5 ppm, mortality 5 days after infestation
Excerpt: Myzus persicae (Sachet) (Green Peach Aphid) Mixed Population Test compounds were applied by pipette into 24 well plates and mixed with Sucrose solution. The plates were closed with a stretched Parafilm. A plastic stencil with 24 holes is placed onto the plate and infested pea seedlings were placed directly on the Parafilm. The infested plate is closed with a gel blotting paper and another plastic stencil and then turned upside down. 5 days after infestation the samples were checked on mortality. Application rate: 12.5 ppm.

Heliothis virescens = experiment: Heliothis virescens, eggs on treated artificial diet; details: 96 h, 200 ppm (concentration in well 18 ppm), 4 days incubation
Method: Heliothis virescens (Tobacco Budworm): Eggs (0-24 h old) were placed in 24-well microtiter plate on artificial diet and treated with test solutions at an application rate of 200 ppm (concentration in well 18 ppm) by pipetting. After an incubation period of 4 days, samples were checked for egg mortality, larval mortality, and growth regulation.

Diabrotica balteata = experiment: Diabrotica balteata, L2 larvae on treated artificial diet; details: 120 h, 200 ppm (concentration in well 18 ppm), 5 days incubation
Method: Diabrotica balteata (Corn Root Worm): A 24-well microtiter plate (MTP) with artificial diet was treated with test solutions at an application rate of 200 ppm (concentration in well 18 ppm) by pipetting. After drying, the MTPs were infested with L2 larvae (6-10 per well). After an incubation period of 5 days, samples were checked for larval mortality and growth regulation.

Tetranychus urticae = experiment: Tetranychus urticae, sprayed bean leaf discs; details: foliar, 192 h, bean leaf discs sprayed at 200 ppm, mixed ages, checked 8 days later
Excerpt: Tetranychus urticae (Two-Spotted Spider Mite): Bean leaf discs on agar in 24-well microtiter plates were sprayed with test solutions at an application rate of 200 ppm. After drying, the leaf discs are infested with mite populations of mixed ages. 8 days later, discs are checked for egg mortality, larval mortality, and adult mortality.

Spodoptera littoralis = experiment: Spodoptera littoralis, sprayed cotton leaf discs, L1 larvae; details: foliar, 72 h, cotton leaf discs sprayed at 200 ppm, 3 days after treatment
Excerpt: Spodoptera littoralis (Egyptian Cotton Leafworm): Cotton leaf discs were placed on agar in a 24-well microtiter plate and sprayed with test solutions at an application rate of 200 ppm. After drying, the leaf discs were infested with 5 L1 larvae. The samples were checked for mortality, feeding behavior, and growth regulation 3 days after treatment (DAT).

Cc1cc(C2=COC(c3cc(Cl)cc(Cl)c3)(C(F)(F)F)C2)ccc1C(=O)NCCC(F)(F)F (centres unmarked) [Compound D6]
≥ 80%: pest or weed control at 200 ppm (Plutella xylostella) | pest or weed control at 200 ppm (Thrips tabaci) | pest or weed control at 12.5 ppm (Myzus persicae) | pest or weed control at 200 ppm (Heliothis virescens) | pest or weed control at 200 ppm (Diabrotica balteata) | pest or weed control at 200 ppm (Tetranychus urticae) | pest or weed control at 200 ppm (Spodoptera littoralis)

Cc1cc(C2=COC(c3cc(Cl)cc(Cl)c3)(C(F)(F)F)C2)ccc1C(=O)NC(C)c1ccccc1 (centres unmarked) [Compound D11]
≥ 80%: pest or weed control at 200 ppm (Plutella xylostella) | pest or weed control at 200 ppm (Thrips tabaci) | pest or weed control at 12.5 ppm (Myzus persicae) | pest or weed control at 200 ppm (Heliothis virescens) | pest or weed control at 200 ppm (Diabrotica balteata) | pest or weed control at 200 ppm (Tetranychus urticae) | pest or weed control at 200 ppm (Spodoptera littoralis)

Cc1cc(C2=COC(c3cc(Cl)cc(Cl)c3)(C(F)(F)F)C2)ccc1C(=O)Nc1cccc(F)c1 (centres unmarked) [Compound D14]
≥ 80%: pest or weed control at 200 ppm (Plutella xylostella) | pest or weed control at 200 ppm (Thrips tabaci) | pest or weed control at 12.5 ppm (Myzus persicae) | pest or weed control at 200 ppm (Heliothis virescens) | pest or weed control at 200 ppm (Diabrotica balteata) | pest or weed control at 200 ppm (Tetranychus urticae) | pest or weed control at 200 ppm (Spodoptera littoralis)

Cc1cc(C2=COC(c3cc(Cl)cc(Cl)c3)(C(F)(F)F)C2)ccc1C(=O)NC1CC2CCC1C2 (centres unmarked) [Compound D22]
≥ 80%: pest or weed control at 200 ppm (Plutella xylostella) | pest or weed control at 200 ppm (Thrips tabaci) | pest or weed control at 200 ppm (Diabrotica balteata)

CCCCNC(=O)c1ccc(C2=COC(c3cc(Cl)cc(Cl)c3)(C(F)(F)F)C2)cc1C (centres unmarked) [Compound D3]
≥ 80%: pest or weed control at 200 ppm (Plutella xylostella) | pest or weed control at 200 ppm (Thrips tabaci) | pest or weed control at 12.5 ppm (Myzus persicae) | pest or weed control at 200 ppm (Heliothis virescens) | pest or weed control at 200 ppm (Diabrotica balteata) | pest or weed control at 200 ppm (Tetranychus urticae) | pest or weed control at 200 ppm (Spodoptera littoralis)

Cc1cc(C2=COC(c3cc(Cl)cc(Cl)c3)(C(F)(F)F)C2)ccc1C(=O)NC1(C)CSC1 (centres unmarked) [Compound D18]
≥ 80%: pest or weed control at 200 ppm (Plutella xylostella) | pest or weed control at 200 ppm (Thrips tabaci) | pest or weed control at 12.5 ppm (Myzus persicae) | pest or weed control at 200 ppm (Heliothis virescens) | pest or weed control at 200 ppm (Diabrotica balteata) | pest or weed control at 200 ppm (Tetranychus urticae) | pest or weed control at 200 ppm (Spodoptera littoralis)

N#Cc1cc(C2=CC(c3cc(Cl)cc(Cl)c3)(C(F)(F)F)OC2)ccc1-n1cc(Br)cn1 (centres unmarked) [Compound G2, 2-(4-Bromo-pyrazol-1-yl)-5-[5-(3,5-dichloro-phenyl)-5-trifluoromethyl-2,5-dihydro-furan-3-yl]-benzonitrile]
≥ 80%: pest or weed control at 200 ppm (Spodoptera littoralis)

Cc1cc(C2=COC(c3cc(Cl)cc(Cl)c3)(C(F)(F)F)C2)ccc1C(=O)NCc1ccc(Cl)nc1 (centres unmarked) [Compound D13]
≥ 80%: pest or weed control at 200 ppm (Plutella xylostella) | pest or weed control at 12.5 ppm (Myzus persicae) | pest or weed control at 200 ppm (Heliothis virescens) | pest or weed control at 200 ppm (Diabrotica balteata) | pest or weed control at 200 ppm (Tetranychus urticae) | pest or weed control at 200 ppm (Spodoptera littoralis)

Cc1cc(C2=CC(c3cc(Cl)cc(Cl)c3)(C(F)(F)F)OC2)ccc1C(=O)NC1CC(=NOCC(F)(F)F)C1 (centres unmarked) [Compound A79]
≥ 80%: pest or weed control at 200 ppm (Plutella xylostella) | pest or weed control at 200 ppm (Thrips tabaci) | pest or weed control at 200 ppm (Heliothis virescens) | pest or weed control at 200 ppm (Diabrotica balteata) | pest or weed control at 200 ppm (Tetranychus urticae) | pest or weed control at 200 ppm (Spodoptera littoralis)

CSCC(C)(C)NC(=O)c1ccc(C2=COC(c3cc(Cl)cc(Cl)c3)(C(F)(F)F)C2)cc1C (centres unmarked) [Compound D19]
≥ 80%: pest or weed control at 200 ppm (Plutella xylostella) | pest or weed control at 12.5 ppm (Myzus persicae) | pest or weed control at 200 ppm (Heliothis virescens) | pest or weed control at 200 ppm (Diabrotica balteata) | pest or weed control at 200 ppm (Tetranychus urticae) | pest or weed control at 200 ppm (Spodoptera littoralis)

Cc1cc(C2=CC(c3cc(Cl)cc(Cl)c3)(C(F)(F)F)OC2)ccc1C(=O)NCc1ccc2c(c1)OCCO2 (centres unmarked) [Compound A44]
≥ 80%: pest or weed control at 200 ppm (Plutella xylostella) | pest or weed control at 200 ppm (Heliothis virescens) | pest or weed control at 200 ppm (Diabrotica balteata) | pest or weed control at 200 ppm (Spodoptera littoralis)

Cc1cc(NC(=O)c2ccc(C3=COC(c4cc(Cl)cc(Cl)c4)(C(F)(F)F)C3)cc2C)n(C)n1 (centres unmarked) [Compound D16]
≥ 80%: pest or weed control at 200 ppm (Plutella xylostella) | pest or weed control at 200 ppm (Thrips tabaci) | pest or weed control at 12.5 ppm (Myzus persicae) | pest or weed control at 200 ppm (Heliothis virescens) | pest or weed control at 200 ppm (Diabrotica balteata) | pest or weed control at 200 ppm (Spodoptera littoralis)

Cc1cc(C2=COC(c3cc(Cl)cc(Cl)c3)(C(F)(F)F)C2)ccc1C(=O)NC1CCC1 (centres unmarked) [Compound D23]
≥ 80%: pest or weed control at 200 ppm (Plutella xylostella) | pest or weed control at 200 ppm (Thrips tabaci) | pest or weed control at 12.5 ppm (Myzus persicae) | pest or weed control at 200 ppm (Heliothis virescens) | pest or weed control at 200 ppm (Diabrotica balteata) | pest or weed control at 200 ppm (Tetranychus urticae) | pest or weed control at 200 ppm (Spodoptera littoralis)

Cc1cc(C2=COC(c3cc(Cl)cc(Cl)c3)(C(F)(F)F)C2)ccc1C(=O)NCc1ccccc1 (centres unmarked) [Compound D9]
≥ 80%: pest or weed control at 200 ppm (Plutella xylostella) | pest or weed control at 200 ppm (Thrips tabaci) | pest or weed control at 12.5 ppm (Myzus persicae) | pest or weed control at 200 ppm (Heliothis virescens) | pest or weed control at 200 ppm (Diabrotica balteata) | pest or weed control at 200 ppm (Tetranychus urticae) | pest or weed control at 200 ppm (Spodoptera littoralis)

Cc1csc(NC(=O)c2ccc(C3=COC(c4cc(Cl)cc(Cl)c4)(C(F)(F)F)C3)cc2C)n1 (centres unmarked) [Compound D17]
≥ 80%: pest or weed control at 200 ppm (Plutella xylostella) | pest or weed control at 12.5 ppm (Myzus persicae) | pest or weed control at 200 ppm (Heliothis virescens) | pest or weed control at 200 ppm (Diabrotica balteata) | pest or weed control at 200 ppm (Spodoptera littoralis)

COCC(C)NC(=O)c1ccc(C2=COC(c3cc(Cl)cc(Cl)c3)(C(F)(F)F)C2)cc1C (centres unmarked) [Compound D4]
≥ 80%: pest or weed control at 200 ppm (Plutella xylostella) | pest or weed control at 200 ppm (Thrips tabaci) | pest or weed control at 12.5 ppm (Myzus persicae) | pest or weed control at 200 ppm (Heliothis virescens) | pest or weed control at 200 ppm (Diabrotica balteata) | pest or weed control at 200 ppm (Tetranychus urticae) | pest or weed control at 200 ppm (Spodoptera littoralis)

CCC(C)NC(=O)c1ccc(C2=COC(c3cc(Cl)cc(Cl)c3)(C(F)(F)F)C2)cc1C (centres unmarked) [Compound D7]
≥ 80%: pest or weed control at 200 ppm (Plutella xylostella) | pest or weed control at 12.5 ppm (Myzus persicae) | pest or weed control at 200 ppm (Heliothis virescens) | pest or weed control at 200 ppm (Diabrotica balteata) | pest or weed control at 200 ppm (Spodoptera littoralis)

Reference: patent US9714228B2, “Dihydrofuran derivatives as insecticidal compounds” (Syngenta Participations AG, priority 2010, dated 2017)
